From patent US20260317367A1, “SALTS INCLUDING CRYSTALLINE SALTS OF 25-HYDROXY-CHOLEST-5-EN-3-SULFATE AND METHODS FOR PREPARING SAME” (Durect Corporation, priority 2022, published 2026)
Where a name gives a salt, the structure may show the parent alone.

What was measured:
Format in all cases: physicochemical
[1] = Solubility of 25HC3S salts after one day at room temperature (HPLC, as free acid); settings: room temperature, one day
Method: These fluids were prepared per the instruction listed by Biorelevant (Biorelevant.com). Each buffer concentrate was diluted with water and mixed well. FaSSIF, FeSSIF, FaSSGF powder was added to each buffer and mixed to completely dissolve the powder. Buffers were stored at room temperature and used within 48 hours of preparation.
(§1) 25HC3S salts were weighed in 8 mL or 4 mL glass vials with Teflon coated screw caps. Aliquots of each solvent were added to each sample and vortexed for about one minute until excess solid remained. Samples were placed on shaker at room temperature with 210 motion per minute shaking.
(§2) After one day, samples were pulled and checked if excess solid was present. About 1.5 mL aliquot of each sample was centrifuged at 12000 rpm for 12 to 15 minutes. […] Aliquots of the top clear solution of each centrifuged sample in MeOH, EtOH, IPA and ACN were diluted with diluent (water:MeOH 95:5) and assayed by HPLC. Samples of the salts in aqueous media were assayed by HPLC without dilution.
All solubility sample solutions of 25HC3S salts were determined using HPLC. A linear standard curve was constructed using standards with concentration between 11 μg/mL to 1.5 mg/mL as free acid forcing the curve to origin. Solubilities are reported as mg/mL free acid 25HC3S. Detection limit (LOD) of the HPLC method was calculated as 0.0007 mg/mL.

[2] = Overall rank order of powder flowability (angle of repose and Hausner ratio)
Description: Table C5 was generated by adding the relative rank order of the 25HC3S salts for angle of repose and Hausner ratio results, and creating an Over All Rank Order of the salts powder flowability. The salts with the lower overall rank order score had better powder flowability.

[3] = Hausner ratio and compressibility index of 25HC3S salts; settings: listed as 25HC3S calcium
Method: Although there are some variations in the method of determining the compressibility index and Hausner ratio, the basic procedure is to measure the unsettled apparent volume, VO, and the final tapped volume, Vf, of the powder after tapping the material until no further volume changes occur. The compressibility index and the Hausner ratio are calculated as follows: […]
Both the Hausner ratio and the compressibility index are empirically established. The Hausner ratio and compressibility index are not absolute properties of a material; its value can vary depending on the methodology used to determine them. In this case, since the 14 salts of 25HC3S were measured the same way, the relative values should be accurate.
Table C3, from USP <1174> Powder Flow, describes the flow character of the powder based on the compressibility index and Hausner ratio values.
Powder was carefully poured into a 5 mL glass graduated cylinder (to contain) until it was close to or at 5.0 mL. This initial volume was recorded as Vo. The graduated cylinder was tapped on a hard surface for 200 times and the volume was recorded. The cylinder was tapped 100 times more, and the final volume Vf was recorded. Typically, the volume after 200 taps was identical to after 300 taps, or within 0.1 mL.

[4] = Appearance (color, clumping, flowability) of stored 25HC3S salts; settings: for Appearance: listed as 25HC3S calcium
Method: (§3) Approximately 25 mg of each crystalline 25HC3S salt was added to 20 mL glass vials and each powder weight was recorded. Four vials were prepared for each salt and stored at 2-8° C. or 80° C. according to Table B2. The samples were scheduled initially to pull for testing at 3 weeks and 6 weeks' time points.
(§4) For those […] salts, the remaining vials stored at 2-8° C. for 3 weeks were allocated for storage at 60° C. for 1 week. Additional stability data was generated according to Table B3.
For appearance, each unopened vial was visually examined for color, clumping, and flowability.

[5] = Final pH of the solubility sample solutions in aqueous media
Method: as §1, §2
5.1 Solubility of 25HC3S Salts in Aqueous Media

[6] = Solid-state chemical stability of 25HC3S salts at 2-8° C., 60° C. and 80° C. (HPLC assay and degradation products); settings: for Physical and chemical solid-state stability (comments): listed as 25HC3S Calcium
Method: as §3, §4
Based on the molecular weights, and expected UV response factors of each salt used in this study, the expected analytical sample concentrations were within the range of the 25HC3S sodium reference standards (0.75 mg/mL to 1.25 mg/mL as 25HC3S sodium salt). However, due to the lower-than-expected purity of the 25HC3S benzathine salt, an additional standard was prepared at 0.125 mg/mL as 25HC3S sodium salt.
Samples were prepared by pipetting 20 mL of 100% methanol into each vial and mixing well, with sonication and vortexing to fully dissolve the samples for HPLC analysis.
Samples were prepared by pipetting 20 mL of 100% methanol into each vial followed by two rounds of sonication for 30 minutes, with 30 seconds of vortexing before and after each round. Sample aliquots were then centrifuged at 10,000 RPM for 10 minutes and the supernatant collected for HPLC analysis.
Samples were prepared by pipetting 20 mL of 100% methanol into each vial, followed by 5 seconds of vortexing. The undissolved powder in methanol was quantitatively transferred into 200 mL volumetric flasks. The sample vials were rinsed 3 times with methanol, with each rinsate transferred to the 200 mL volumetric flasks. The volumetric flasks were filled to about 90% volume and sonicated for 10 minutes to fully dissolve the powder. The flasks were filled to volume with methanol, mixed well and aliquots collected for HPLC analysis.
HPLC analysis was performed.

[7] = rank, lower is better flow, listed as 25HC3S calcium

In the case of CC(CCCC(C)(C)O)C1CCC2C3CC=C4CC(OS(=O)(=O)O)CCC4(C)C3CCC12C (stereo not drawn) [Salt #2], the “Solubility in 5% Dextrose” value ([1]; 5% dextrose, as free acid, LOD 0.0007 mg/mL, 1440 min) is reported as 5 µg/mL, the “Solubility in FaSSGF (in words)” value ([1]; FaSSGF, listed as crystalline 25HC3S calcium) is reported as “low solubility” and the “Solubility in FaSSIF (in words)” value ([1]; FaSSIF, listed as crystalline 25HC3S calcium) is reported as “relatively high solubility”. For the same compound, the “Solubility in saline / 0.9% sodium chloride (in words)” value ([1]; saline, listed as crystalline 25HC3S calcium) was “low solubility”, the “Powder flowability, overall (in words)” value ([2]; angle of repose and compressibility index/Hausner ratio combined, listed as calcium) was “poorer flowability” and the “Angle of Repose Rank Order” value [2, 7] was 11. For the same compound, the “Hausner Ratio Rank Order” value [2, 7] was 11, the “Overall Rank Order (Total Score)” value ([2]; sum of both ranks, lower is better flow, listed as 25HC3S calcium) was 22 and the “Compressibility Index” value ([3]; Table C3 heads this index in %) was 36. The “Hausner Ratio” value [3] was 1.56, the Appearance ([4]; 2-8° C., 3 wk) was “White, free flowing powder with some” and the Appearance ([4]; 60° C., 1 wk (after 3 weeks at 2-8° C.)) was “Brown, melted material stuck to bottom”. For the same compound, the “Appearance after 3 weeks at 80° C.” value ([4]; 80° C., 3 weeks) was “completely burned”, the Appearance ([4]; 80° C., 3 wk) was “Dark brown, melted material stuck to” and the “pH of the solubility sample, 0.9% Sodium Chloride” value ([5]; 0.9% sodium chloride (blank 5.8), listed as 25HC3S calcium) was 8.5. The “pH of solubility sample solution in 0.9% sodium chloride” value ([5]; 0.9% sodium chloride (medium pH 5.8)) was 8.5, the “pH of the solubility sample, 5% Dextrose” value ([5]; 5% dextrose (blank 4.7), listed as 25HC3S calcium) was 7.2 and the “pH of the solubility sample, FaSSGF” value ([5]; FaSSGF (blank 1.5, 1.6)) was 1.6. The “pH of the solubility sample, FaSSIF” value ([5]; FaSSIF (blank 6.5, 6.5), listed as 25HC3S calcium) was 6.5, the “pH of the solubility sample, FeSSIF” value ([5]; FeSSIF (blank 4.9, 5.0)) was 5.0 and the “pH of the solubility sample, Water” value ([5]; water (blank 6.3), listed as 25HC3S calcium) was 8.8. The Assay ([6]; 2-8° C., 3 wk, 30240 min, listed as 25HC3S calcium) was 92.9 % w/w, the “% Impurities, Total” value ([6]; 2-8° C., 3 wk, ND = Not Detected, listed as 25HC3S calcium) was 1.6% and the “Overall physical and chemical stability (in words)” value ([6]; 2-8° C., 60° C., 80° C.) was “least physically and chemically stable”. The “Overall physical and chemical stability (in words)” value ([6]; 2-8° C., 60° C., 80° C., listed as 25HC35S calcium) was “least stable”, the “% Impurities, 25-HC” value ([6]; 25-Hydroxy-Cholesterol, 2-8° C., 3 wk, ND = Not Detected, listed as 25HC3S calcium) was 0.2% and the “Physical and chemical solid-state stability (comments)” value ([6]; 60° C., 1 week) was “Totally decomposed after 1 week at 60 °C”. The Assay ([6]; 60° C., 1 wk (after 3 weeks at 2-8° C.), 10080 min, listed as 25HC3S calcium, 10080 min) was 0.0 % w/w, the “% Recovery of 2-8° C./3 wk vs 60° C./1 wk” value ([6]; 60° C., 1 wk, 10080 min, listed as 25HC3S calcium) was 0.0% and the “Physical and chemical solid-state stability (comments)” value ([6]; 80° C., 3 weeks) was “Totally decomposed after 1 week at 60 °C and after 3 weeks at 80 °C”. For the same compound, the “% Recovery” value ([6]; 80° C., 3 wk, vs 2-8° C., 30240 min, listed as 25HC3S calcium, 30240 min) was 0.0%, the Assay ([6]; 80° C., 3 wk, 30240 min, listed as 25HC3S calcium) was 0.0 % w/w and the “% Impurities, Total” value ([6]; 80° C., 3 wk, ND = Not Detected, listed as 25HC3S calcium) was 100%. For the same compound, the “degradants dissolved in the diluent (comments)” value ([6]; after 1 week at 60° C. and 3 weeks at 80° C.) was “degradants were dissolved in the diluent.extract”, the “Stability after 1 week at 60° C. (in words)” value ([6]; solid state, 60° C., 1 week (after 3 weeks at 2-8° C.)) was “totally decomposed” and the “Stability after 3 weeks at 80° C. (in words)” value ([6]; solid state, 80° C., 3 weeks) was “totally decomposed”.
